Results taken from patent US9315859B2, “DDAO compounds as fluorescent reference standards” (LIFE TECHNOLOGIES CORPORATION, priority 2010, dated 2016).

Experiments:
Assay type in all cases: physicochemical
[1] = Resilience to harsh oxidation: free dye with benzoyl peroxide, fluorescence decay; settings: about 1 μM free dye in Tris-EDTA buffer/MeOH, 5 μl 0.5M benzoyl peroxide in acetonitrile per 1 ml, read at 5 minute intervals, compared with ROX
Description: Regarding chemical stability, DDAO congeners appear to have resilience under various conditions, such as oxidation, photo-degradation, and the like. For example, regarding resilience to harsh oxidation, DDAO, Sulfo-DDAO, and ROX were each suspended as free dyes in a solution of 1.4 of Tris-EDTA buffer (1× stock concentration) in MeOH at a concentration of approximately 1 μM. Five μl of 0.5M benzoyl peroxide in acetonitrile was added to 1 ml of the dye composition in a fluorimeter cuvette. Fluorescence emission intensity was measured at each dye's emission maximum immediately, and then at 5 minute intervals. A first-order exponential curve was fit to the data to calculate the decay rate for each dye. FIG. 7 is a graph showing the results of that experiment. […] As such, the reference dyes of formula (I) can be used in assays in which the assay components might come in contact with oxidants.

[2] = Normalized fluorescent emission as a function of temperature; settings: signals normalized to the 94° C. data point; compared with 6-FAM and ROX
Description: FIG. 6 depicts a graph of normalized fluorescent emission as a traction of temperature for Sulfo-DDAO in comparison to a reporter dye, 6-FAM, as well as a reference dye, ROX. Given the difference in brightness of the dyes shown, each data point for each curve was adjusted using an internal reference point taken from the 94° C. data point for that data set. In that regard, the fluorescence signals are normalized to give equal intensities at 94 C so that their relative changes with temperature can be easily compared. […] This attribute may be useful when, for example, dye calibration they be one at a different temperature from a run temperature, or could be useful for normalizing experimental variations as previously discussed.

[3] = Stability of reference dye incubated in TaqMan Universal PCR Master Mix, judged by Ct values; settings: room temperature in TaqMan Universal PCR Master Mix, 1 day to 4 weeks; consistent Ct values
Description: FIG. 11 depicts the stability of Sulfo-DDAO in a master mix, and incubated with various additional additives. Sulfo-DDAO was incubated in TaqMan® Universal PCR Master Mix at room temperature for 1 day, 1 week, 2 weeks, or 4 weeks. At each designated time point, fixed quantities of various, different target polynucleotides and various dye-labeled TaqMan® probes, were added. The target/probe mixtures were PCR amplified in a 96 well plate and the signals recorded after each amplification cycle to generate an amplification count from which a Ct value was determined for each target/probe mixture, using Sulfo-DDAO as a reference dye. FIG. 11 is a graph showing the results of that experiment, with the Ct values plotted for each time point. The Sulfo-DDAO signal was stable at room temperature in TaqMan® Universal PCR Master Mix for up to 4 weeks, as evidenced by the consistent Ct values obtained at different incubation times for the different target/probe mixtures, using Sulfa-DDAO as a reference dye.

Row | SMILES | resilience to oxidation (fluorescence emission decay) [1] | stability of fluorescence emission across temperature [2] | stability of reference dye signal in master mix [3]
1 | CC1(C)C2=C(Cl)C(=O)C(Cl)=CC2=Nc2ccc(O)cc21 [DDAO, 1,3-dichloro-7-hydroxy-9,9-dimethylacridin-2(9H)-one] | show resilience to oxidation | – | –
2 | CC1(C)C2=C(Cl)C(=O)C(Cl)=CC2=Nc2cc(S(=O)(=O)O)c(O)cc21 [Sulfo-DDAO, 6,8-dichloro-2-hydroxy-9,9-dimethyl-7-oxo-7,9-dihydroacridine-3-sulfonic acid] | show resilience to oxidation | fairly stable | stable
